Measurements from US20260159497A1, “SOLID FORMS OF A COMPLEMENT FACTOR B INHIBITOR” (Novartis Pharma AG, priority 2022, published 2026).
Converted amounts (≈) assume the structure as drawn. Read-outs that look alike come from different tables or passages of the source.

Key:
[1] = Intrinsic dissolution rate; type: physicochemical
[2] = Solubility in Simulated Fluids at 37° C.; type: physicochemical; conditions: for solubility at 30 min / solubility at 24 h: 37 °C, thermodynamic from solid; for solubility at 30 min: read-out: Solubility (mg/mL) 30 min; for solubility at 24 h: read-out: Solubility (mg/mL) 24 h
Source text: Solubility data of Form A (S)-4-(2,2-difluoro-7-((5-methoxy-7-methyl-1H-indol-4-yl)methyl)-7-azaspiro[3.5]nonan-6-yl)benzoic acid, Form B (S)-4-(2,2-difluoro-7-((5-methoxy-7-methyl-1H-indol-4-yl)methyl)-7-azaspiro[3.5]nonan-6-yl)benzoic acid p-toluene sulfonic acid salt, Form C (S)-4-(2,2-difluoro-7-((5-methoxy-7-methyl-1H-indol-4-yl)methyl)-7-azaspiro[3.5]nonan-6-yl)benzoic acid p-toluene sulfonic acid salt, and Form D (S)-4-(2,2-difluoro-7-((5-methoxy-7-methyl-1H-indol-4-yl)methyl)-7-azaspiro[3.5]nonan-6-yl)benzoic acid hydrochloride salt in Simulated Fluids at 37° C.

[3] = Water content by Karl Fischer titration; type: physicochemical; conditions: ambient conditions; relative to total weight of the salt / free form
[4] = Solubility in water and biorelevant buffers at 25° C.; type: physicochemical; conditions: 25° C., 24 h; for solubility at 24 h: thermodynamic from solid, read-out: Solubility (mg/mL) S
Experimental: Purchase sodium taurocholate (NaTC) from supplier. Account for assay. Add amount corresponding to 3 mM to PBS V1. Stir until dissolved. Equilibrate 1 h at 25° C. or 37° C. before use. Dispose after 48 h.
Purchase FaSSIF-V2 from supplier (biorelevant.com). Amount added to PBS-V1 according to Table 1. Stir until dissolved. Equilibrate 1 h at 25° C. or 37° C. before use. Dispose after 48 h.
Purchase FeSSIF-V2 from supplier (biorelevant.com). Amount added to PBS-V1 according to Table 1. Stir until dissolved. Equilibrate 1 h at 25° C. or 37° C. before use. Dispose after 48 h.

[5] = Compression stability (XRPD after compression); type: physicochemical; conditions: 4 tons of compression for 5 min
Source text: Method: […] Afterwards, characterize the sample by XRPD to detect any change in the solid state.

[6] = Dynamic vapor sorption (DVS) mass change; type: physicochemical; conditions: for Mass change by DVS, Desorption (%) / Mass change by DVS, Sorption (%): Table 5, 25 degree C., based on dry weight
Source text: [table] The mass change by DVS isotherm (2 cycles 40-0-95-0-40% RH) are in the tables below. The mass change is based on the dry weight of each.

[7] = Grinding and wet granulation; type: physicochemical
Source text: Method: Granulate was obtained in solid-state forms. […] Dry the wet-cake under vacuum or at atmospheric pressure. Evaluate solid form and degree of crystallinity by e.g. XRPD and/or DSC.

[8] = Stability of Forms A and B under stress conditions (temperature/humidity, capsules, light)
[9] = pH 2.0, 0.01 M HCl, 37° C., 100 rpm, 120 min
[10] = pH 6.5, phosphate buffer 50 mM (PBS-V1), 37° C., 100 rpm, 120 min

## COc1cc(C)c2[nH]ccc2c1CN1CCC2(C[C@H]1c1ccc(C(=O)O)cc1)CC(F)(F)C2 [Form A, (S)-4-(2,2-difluoro-7-((5-methoxy-7-methyl-1H-indol-4-yl)methyl)-7-azaspiro[3.5]nonan-6-yl)benzoic acid]
[1]; PBS-V1 (pH 6.5)
  intrinsic dissolution rate: 0.0028 mg/min/cm^2
[1]; pH 2.0, 0.01 M HCl
  intrinsic dissolution rate: 0.081 mg/min/cm^2
[1]; [9]
  form change after intrinsic dissolution: (No form change)
  intrinsic dissolution rate: 0.081 mg · min^−1 · cm^−2
[1]; [10]
  form change after intrinsic dissolution: (No form change)
  intrinsic dissolution rate: 0.0028 mg · min^−1 · cm^−2
[2]; fassgf or other biorelevant, FaSSGF, 30 min
  solubility at 30 min: 2.28 mg/mL (≈ 5020 µM)
[2]; fassgf or other biorelevant, FaSSGF, 24 h
  solubility at 24 h: > 2 mg/mL
[2]; fassif, FaSSIF, 30 min
  solubility at 30 min: 0.24 mg/mL (≈ 528 µM)
[2]; fassif, FaSSIF, 24 h
  solubility at 24 h: 0.18 mg/mL (≈ 396 µM)
[2]; fessif, FeSSIF, 30 min
  solubility at 30 min: 0.31 mg/mL (≈ 682 µM)
[2]; fessif, FeSSIF, 24 h
  solubility at 24 h: 0.31 mg/mL (≈ 682 µM)
[2]; pH 7, water, Water, initial pH 7.00, 30 min
  solubility at 30 min: 0.21 mg/mL (≈ 462 µM)
[2]; pH 7, water, Water, initial pH 7.00, 24 h
  solubility at 24 h: 0.22 mg/mL (≈ 484 µM)
[2]; FaSSGF
  pH at 24 h: 1.61
[2]; FaSSIF
  pH at 24 h: 6.48
[2]; FeSSIF
  pH at 24 h: 5.00
[2]; Water, initial pH 7.00
  pH at 24 h: 7.12
[3]
  water content by Karl Fischer titration: 0.15 % w/w
[4]; FaSSGF, pH 1.6
  pH of solubility sample (pH): 1.68
[4]; PBS-V1 + 3 mM NaTC, pH 6.5
  pH of solubility sample (pH): 6.51
[4]; PBS-V1 + 0.3 FeSSIF-V2, pH 6.5
  pH of solubility sample (pH): 6.52
[4]; PBS-V1 + 2.0 FeSSIF-V2, pH 6.5
  pH of solubility sample (pH): 6.73
[4]; PBS-V1 + FaSSIF-V2, pH 6.5
  pH of solubility sample (pH): 6.69
  solubility at 24 h: 0.072 mg/mL
[4]; PBS-V1 + FeSSIF-V2, pH 6.5
  pH of solubility sample (pH): 6.74
  solubility at 24 h: 0.094 mg/mL
[4]; fassgf or other biorelevant, FaSSGF, pH 1.6
  solubility at 24 h: > 2 mg/mL
[4]; fassgf or other biorelevant, PBS-V1 + 3 mM NaTC, pH 6.5
  solubility at 24 h: 0.068 mg/mL
[4]; fassgf or other biorelevant, PBS-V1 + 0.3 FeSSIF-V2, pH 6.5
  solubility at 24 h: 0.074 mg/mL
[4]; fassgf or other biorelevant, PBS-V1 + 2.0 FeSSIF-V2, pH 6.5
  solubility at 24 h: 0.12 mg/mL
[4]; water
  solubility at 24 h: 0.052 mg/mL (≈ 114 µM)
  pH of solubility sample (pH): 7.40
[5]
  form change in XRPD after compression: no form change
[6]; 95% RH at 25° C.
  moisture absorbed by DVS (absorbs up to): up to 0.45%
[6]; 0% RH
  Mass change by DVS, Desorption (%): −0.01%
  Mass change by DVS, Sorption (%): 0.00%
[6]; 10% RH
  Mass change by DVS, Desorption (%): 0.06%
  Mass change by DVS, Sorption (%): 0.04%
[6]; 20% RH
  Mass change by DVS, Desorption (%): 0.12%
  Mass change by DVS, Sorption (%): 0.08%
[6]; 30% RH
  Mass change by DVS, Desorption (%): 0.17%
  Mass change by DVS, Sorption (%): 0.13%
[6]; 40% RH
  Mass change by DVS, Desorption (%): 0.22%
  Mass change by DVS, Sorption (%): 0.17%
[6]; 50% RH
  Mass change by DVS, Desorption (%): 0.26%
  Mass change by DVS, Sorption (%): 0.22%
[6]; 60% RH
  Mass change by DVS, Desorption (%): 0.32%
  Mass change by DVS, Sorption (%): 0.26%
[6]; 70% RH
  Mass change by DVS, Desorption (%): 0.35%
  Mass change by DVS, Sorption (%): 0.30%
[6]; 80% RH
  Mass change by DVS, Desorption (%): 0.38%
  Mass change by DVS, Sorption (%): 0.35%
[6]; 90% RH
  Mass change by DVS, Desorption (%): 0.42%
  Mass change by DVS, Sorption (%): 0.40%
[6]; 95% RH
  Mass change by DVS, Desorption (%): 0.45%
  Mass change by DVS, Sorption (%): 0.45%
[7]; after grinding
  crystallinity from XRPD pattern after grinding: crystallinity decrease
[7]; dry grinding (2 min and 5 min) and wet granulation (water and ethanol)
  form change after grinding and wet granulation: did not lead to any form change
[8]; 50° C. with 11% and 75% RH for 2 weeks
  stability in HPMC and HGC capsules: chemically and physically stable
[8]; 1200 kLux light stress
  degradation under light stress: about 0.9%
[8]; exposed to 80% or 92% RH for 24 hrs
  form change by XRPD after humidity exposure: no change
[8]; stored at 50° C. with 11% RH or 75% RH for 1 week
  chemical stability in bulk state: chemically stable
[8]; stored at 80° C. with 11% RH or 75% RH
  discoloration in bulk state: slight to medium discoloration
[8]; temperature/humidity and light stress conditions
  polymorphic form in the stress conditions: unchanged
